The source of these data is patent publication US10793580B2, “Substituted pyrazoloazepin-8-ones and their use as phosphodiesterase inhibitors” (LEO Pharma A/S, priority 2016, dated 2020).

pIC50: −log10 of the molar value. Some results are limits rather than exact numbers.

human PDE4D catalytic domain, sequence (Q08499 380-740): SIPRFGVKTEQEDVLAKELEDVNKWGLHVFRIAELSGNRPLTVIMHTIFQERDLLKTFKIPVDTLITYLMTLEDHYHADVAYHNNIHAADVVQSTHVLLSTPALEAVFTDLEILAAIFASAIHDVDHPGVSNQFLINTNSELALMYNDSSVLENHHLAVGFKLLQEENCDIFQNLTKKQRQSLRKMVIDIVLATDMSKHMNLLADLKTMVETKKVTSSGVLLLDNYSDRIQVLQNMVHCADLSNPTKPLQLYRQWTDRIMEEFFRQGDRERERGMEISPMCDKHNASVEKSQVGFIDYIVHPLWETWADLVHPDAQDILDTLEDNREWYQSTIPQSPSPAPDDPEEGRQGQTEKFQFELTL

The target of one assay is human PDE4D catalytic domain (Homo sapiens (Human), UniProt Q08499). In words: PDE4 Assay (TR-FRET, FAM-cAMP cleavage). Format: biochemical. The conditions noted are these: Table 16, Examples 277-296; read-out: PDE4 IC50 range. The essentials:
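Readout is Tb-to-FAM time-resolved FRET after nanoparticle capture of AMP, the product of cleaving a cAMP/FAM-cAMP mixture by PDE4D catalytic domain (S380-L740) in the presence of titrated compound. Values are IC50 ranges in nM: concentration halving substrate cleavage relative to controls.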
As for `CCn1nc(C[C@@H](C)COC(=O)c2cnc(C)o2)c2c1C(=O)NCC1(CCOCC1)C2` [Example 282, [(2R)-3-(1-ethyl-8-oxo-spiro[6,7-dihydro-4H-pyrazolo[3,4-c]azepine-5,4′-tetrahydropyran]-3-yl)-2-methyl-propyl] 2-methyloxazole-5-carboxylate], the pIC50 was over 7.00.
On the same count and under the same terms, the same measure for `CCn1nc(C[C@@H](C)COC(=O)C2CCN(C)CC2)c2c1C(=O)NCC1(CCOCC1)C2` [Example 292, [(2R)-3-(1-ethyl-8-oxo-spiro[6,7-dihydro-4H-pyrazolo[3,4-c]azepine-5,4′-tetrahydropyran]-3-yl)-2-methyl-propyl] 1-methylpiperidine-4-carboxylate]: 6.30 to 7.00; for `CCn1nc(C[C@@H](C)COC(=O)c2cn(C)cn2)c2c1C(=O)NCC1(CCOCC1)C2` [Example 280, [(2R)-3-(1-ethyl-8-oxo-spiro[6,7-dihydro-4H-pyrazolo[3,4-c]azepine-5,4′-tetrahydropyran]-3-yl)-2-methyl-propyl] 1-methylimidazole-4-carboxylate]: over 7.00.

Still in this assay, the particulars now being: human PDE4D catalytic domain (UniProt Q08499 [S380-L740]); 50% inhibition of substrate cleavage; read-out: PDE4 IC50 range.
As for `CCn1nc(CCCOC(=O)c2ccc(Cl)cc2C)c2c1C(=O)NCC1(CCOCC1)C2` [Example 43, 3-(1-ethyl-8-oxo-spiro[6,7-dihydro-4H-pyrazolo[3,4-c]azepine-5,4′-tetrahydropyran]-3-yl)propyl 4-chloro-2-methyl-benzoate], the pIC50 is over 7.00.
Same read-out and setting: the same measure for `CCn1nc(C[C@@H](C)COC(=O)c2ccc(C(=O)N(C)C)cc2)c2c1C(=O)NCC1(CCOCC1)C2` [Example 171, [(2R)-3-(1-ethyl-8-oxo-spiro[6,7-dihydro-4H-pyrazolo[3,4-c]azepine-5,4′-tetrahydropyran]-3-yl)-2-methyl-propyl] 4-(di-methylcarbamoyl)benzoate]: over 7.00; for `CCn1nc(CCCOC(=O)c2ccc(OC)c(F)c2)c2c1C(=O)NCC1(CCOCC1)C2` [Example 35, 3-(1-ethyl-8-oxo-spiro[6,7-dihydro-4H-pyrazolo[3,4-c]azepine-5,4′-tetrahydropyran]-3-yl)propyl 3-fluoro-4-methoxy-benzoate]: over 7.00; for `CCn1nc(CCCOC(=O)c2ccc(S(=O)(=O)N(C)C)cc2)c2c1C(=O)NCC1(CCOCC1)C2` [Example 2, 3-(1-Ethyl-8-oxo-spiro[6,7-dihydro-4H-pyrazolo[3,4-c]azepine-5,4′-tetrahydropyran]-3-yl)propyl 4-(dimethylsulfamoyl)benzoate]: over 7.00.
The same measure, in the same setting: the same measure for `CCn1nc(CCCOC(=O)c2cc(Cl)ccc2C(F)(F)F)c2c1C(=O)NCC1(CCOCC1)C2` [Example 87, 3-(1-ethyl-8-oxo-spiro[6,7-dihydro-4H-pyrazolo[3,4-c]azepine-5,4′-tetrahydro-pyran]-3-yl)propyl 5-chloro-2-(trifluoromethyl)benzoate]: over 7.00.
Same read-out and setting: the value for `CCn1nc(CC(C)(C)COC(=O)c2ccc(C(=O)N3CCOCC3)cc2)c2c1C(=O)NCC1(CCOCC1)C2` [Example 223, [3-(1-ethyl-8-oxo-spiro[6,7-dihydro-4H-pyrazolo[3,4-c]azepine-5,4′-tetrahydropyran]-3-yl)-2,2-dimethyl-propyl] 4-(morpholine-4-carbonyl)benzoate] was over 7.00; that for `CCn1nc(C[C@@H](C)COC(=O)c2cccc(C(N)=O)c2)c2c1C(=O)NCC1(CCOCC1)C2` [Example 178, [(2R)-3-(1-ethyl-8-oxo-spiro[6,7-dihydro-4H-pyrazolo[3,4-c]azepine-5,4′-tetrahydropyran]-3-yl)-2-methyl-propyl] 3-carbamoylbenzoate] was over 7.00; that for `CCn1nc(CCCOC(=O)c2cc(C(F)(F)F)ccc2C)c2c1C(=O)NCC1(CCOCC1)C2` [Example 67, 3-(1-ethyl-8-oxo-spiro[6,7-dihydro-4H-pyrazolo[3,4-c]azepine-5,4′-tetrahydro-pyran]-3-yl)propyl 2-methyl-5-(trifluoromethyl)benzoate] was over 7.00.
Take `CCn1nc(CC(C)(C)COC(=O)c2ccc(S(=O)(=O)N3CCCC3)cc2)c2c1C(=O)NCC1(CCOCC1)C2` [Example 211, [3-(1-ethyl-8-oxo-spiro[6,7-dihydro-4H-pyrazolo[3,4-c]azepine-5,4′-tetrahydropyran]-3-yl)-2,2-dimethyl-propyl] 4-pyrrolidin-1-ylsulfonylbenzoate]: the pIC50 was over 7.00.
Same read-out and setting: the value for `CCn1nc(CCCOC(=O)c2cc(C#N)ccc2F)c2c1C(=O)NCC1(CCOCC1)C2` [Example 31, 3-(1-ethyl-8-oxo-spiro[6,7-dihydro-4H-pyrazolo[3,4-c]azepine-5,4′-tetrahydropyran]-3-yl)propyl 5-cyano-2-fluoro-benzoate] was over 7.00; that for `CCc1ccc(C(=O)OCC(C)(C)Cc2nn(CC)c3c2CC2(CCOCC2)CNC3=O)cc1` [Example 195, [3-(1-ethyl-8-oxo-spiro[6,7-dihydro-4H-pyrazolo[3,4-c]azepine-5,4′-tetrahydropyran]-3-yl)-2,2-dimethyl-propyl] 4-ethylbenzoate] was over 7.00; that for `CCn1nc(CCCOC(=O)c2c(F)cccc2Cl)c2c1C(=O)NCC1(CCOCC1)C2` [Example 52, 3-(1-ethyl-8-oxo-spiro[6,7-dihydro-4H-pyrazolo[3,4-c]azepine-5,4′-tetrahydropyran]-3-yl)propyl 2-chloro-6-fluoro-benzoate] was over 7.00.
Take `CCn1nc(CCCOC(=O)c2cccc(C(=O)NC)c2)c2c1C(=O)NCC1(CCOCC1)C2` [Example 114, 3-(1-ethyl-8-oxo-spiro[6,7-dihydro-4H-pyrazolo[3,4-c]azepine-5,4′-tetrahydropyran]-3-yl)propyl 3-(methyl-carbamoyl)benzoate]: the pIC50 was over 7.00.
Same read-out and setting: the value for `CCn1nc(CCCOC(=O)c2cc(OC)ccc2Cl)c2c1C(=O)NCC1(CCOCC1)C2` [Example 56, 3-(1-ethyl-8-oxo-spiro[6,7-dihydro-4H-pyrazolo[3,4-c]azepine-5,4′-tetrahydropyran]-3-yl)propyl 2-chloro-5-methoxy-benzoate] was over 7.00; that for `CCn1nc(CC(C)(C)COC(=O)CCS(C)(=O)=O)c2c1C(=O)NCC1(CCOCC1)C2` [Example 199, [3-(1-ethyl-8-oxo-spiro[6,7-dihydro-4H-pyrazolo[3,4-c]azepine-5,4′-tetrahydropyran]-3-yl)-2,2-dimethyl-propyl] 3-methylsulfonylpropanoate] was over 7.00; that for `CCn1nc(CCCOC(=O)c2cc(F)ccc2F)c2c1C(=O)NCC1(CCOCC1)C2` [Example 25, 3-(1-ethyl-8-oxo-spiro[6,7-dihydro-4H-pyrazolo[3,4-c]azepine-5,4′-tetrahydropyran]-3-yl)propyl 2,5-difluorobenzoate] was over 7.00.
The same measure, in the same setting: the same measure for `CCn1nc(CCCOC(=O)c2cc(Cl)cc(C(F)(F)F)c2)c2c1C(=O)NCC1(CCOCC1)C2` [Example 90, 3-(1-ethyl-8-oxo-spiro[6,7-dihydro-4H-pyrazolo[3,4-c]azepine-5,4′-tetrahydro-pyran]-3-yl)propyl 3-chloro-5-(trifluoromethyl)benzoate]: over 7.00; for `CCn1nc(CCOC(=O)c2cnsc2)c2c1C(=O)NCC1(CCOCC1)C2` [Example 275, 2-(1-ethyl-8-oxo-spiro[6,7-dihydro-4H-pyrazolo[3,4-c]azepine-5,4′-tetrahydropyran]-3-yl)ethyl isothiazole-4-carboxylate]: over 7.00; for `CCn1nc(CCCOC(=O)c2cnc(C)nc2)c2c1C(=O)NCC1(CCOCC1)C2` [Example 247, 3-(1-ethyl-8-oxo-spiro[6,7-dihydro-4H-pyrazolo[3,4-c]azepine-5,4′-tetrahydropyran]-3-yl)propyl 2-methylpyrimidine-5-carboxylate]: over 7.00.
Regarding `CCn1nc(CCCOC(=O)C2CN(C(C)=O)C2)c2c1C(=O)NCC1(CCOCC1)C2` [Example 252, 3-(1-ethyl-8-oxo-spiro[6,7-dihydro-4H-pyrazolo[3,4-c]azepine-5,4′-tetrahydropyran]-3-yl)propyl 1-acetylazetidine-3-carboxylate], the pIC50 is 6.30 to 7.00.
On the same count and under the same terms, the value for `CCn1nc(CCCOC(=O)c2cc(F)ccc2C)c2c1C(=O)NCC1(CCOCC1)C2` [Example 20, 3-(1-ethyl-8-oxo-spiro[6,7-dihydro-4H-pyrazolo[3,4-c]azepine-5,4′-tetrahydropyran]-3-yl)propyl 5-fluoro-2-methyl-benzoate] was over 7.00.
With `CCn1nc(C[C@@H](C)COC(=O)c2ccccc2OC)c2c1C(=O)NCC1(CCOCC1)C2` [Example 151, [(2R)-3-(1-ethyl-8-oxo-spiro[6,7-dihydro-4H-pyrazolo[3,4-c]azepine-5,4′-tetrahydropyran]-3-yl)-2-methyl-propyl] 2-methoxybenzoate], the pIC50 is over 7.00.
On the same count and under the same terms, the same measure for `CCn1nc(CCCOC(=O)c2ccc(F)c(OC)c2)c2c1C(=O)NCC1(CCOCC1)C2` [Example 36, 3-(1-ethyl-8-oxo-spiro[6,7-dihydro-4H-pyrazolo[3,4-c]azepine-5,4′-tetrahydropyran]-3-yl)propyl 4-fluoro-3-methoxy-benzoate]: over 7.00.
`CCn1nc(C[C@@H](C)COC(=O)c2ccc(OC)cc2)c2c1C(=O)NCC1(CCOCC1)C2` [Example 149, [(2R)-3-(1-ethyl-8-oxo-spiro[6,7-dihydro-4H-pyrazolo[3,4-c]azepine-5,4′-tetrahydropyran]-3-yl)-2-methyl-propyl] 4-methoxybenzoate]: the negative-log IC50 (pIC50) was over 7.00.
The same measure, in the same setting: the same measure for `CCn1nc(C[C@@H](C)COC(=O)c2cccc(C(=O)N(C)C)c2)c2c1C(=O)NCC1(CCOCC1)C2` [Example 180, [(2R)-3-(1-ethyl-8-oxo-spiro[6,7-dihydro-4H-pyrazolo[3,4-c]azepine-5,4′-tetrahydropyran]-3-yl)-2-methyl-propyl] 3-(di-methylcarbamoyl)benzoate]: over 7.00.

The pIC50 is the negative decadic logarithm of the IC50, by convention in mol/L.
